Data taken from US7612056B2, “Substituted diaza-spiro-[4.5]-decane derivatives and their use as neurokinin antagonists” (Jenssen Pharmaceutica N.V., priority 2005, dated 2009).

Key:
NK1 = NK1 (Homo sapiens, UniProt P25103); test: Signal transduction (ST), intracellular Ca++ (FLIPR), NK1; type: cell-based; conditions: antagonist, Ca++ transient peak, read-out: pIC50 NK1 (converted)
Procedure: This test evaluates in vitro functional NK1 antagonistic activity. For the measurements of intracellular Ca^++ concentrations the cells were grown on 96-well (black wall/transparent bottom) plates from Costar for 2 days until they reached confluence. The cells were loaded with 2 μM Fluo3 in DMEM containing 0.1% BSA and 2.5 mM probenecid for 1 h at 37° C. They were washed 3× with a Krebs buffer (140 mM NaCl, 1 mM MgCl2×6H2O, 5 mM KCl, 10 mM glucose, 5 mM HEPES; 1.25 mM CaCl2; pH 7.4) containing 2.5 mM probenecid and 0.1% BSA (Ca^++-buffer). The cells were preincubated with a concentration range of antagonists for 20 min at RT and Ca^++-signals after addition of the agonists were measured in a Fluorescence Image Plate Reader (FLIPR from Molecular Devices, Crawley, England). The peak of the Ca^++-transient was considered as the relevant signal and the mean values of corresponding wells were analysed as described below.
The sigmoidal dose response curves were analysed by computerised curve-fitting, using the GraphPad Program. The EC50-value of a compound is the effective dose showing 50% of maximal effect. For mean curves the response to the agonist with the highest potency was normalised to 100%. For antagonist responses the IC50-value was calculated using non-linear regression. […]

NK2 = biological target: T1, NK2 (Homo sapiens, UniProt P21452); test: Signal transduction (ST), intracellular Ca++ (FLIPR), NK2; type: cell-based; conditions: antagonist, Ca++ transient peak, read-out: pIC50 NK2 (converted)
T1 sequence (P21452 1-398): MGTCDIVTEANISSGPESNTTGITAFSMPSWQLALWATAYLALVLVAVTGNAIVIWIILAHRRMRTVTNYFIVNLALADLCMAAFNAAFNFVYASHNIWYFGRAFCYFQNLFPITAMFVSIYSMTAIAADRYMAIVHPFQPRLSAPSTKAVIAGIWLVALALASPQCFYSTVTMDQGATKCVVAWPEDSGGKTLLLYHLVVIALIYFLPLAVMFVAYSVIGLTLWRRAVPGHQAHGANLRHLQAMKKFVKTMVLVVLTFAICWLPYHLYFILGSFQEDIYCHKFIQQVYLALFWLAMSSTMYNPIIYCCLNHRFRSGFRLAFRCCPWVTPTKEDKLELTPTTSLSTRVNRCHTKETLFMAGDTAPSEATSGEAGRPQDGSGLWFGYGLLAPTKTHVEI

NK3 = biological target: T2, NK3 (Homo sapiens, UniProt P29371); test: Signal transduction (ST), intracellular Ca++ (FLIPR), NK3; type: cell-based; conditions: antagonist, Ca++ transient peak, read-out: pIC50 NK3 (converted)
T2 sequence (P29371 1-465): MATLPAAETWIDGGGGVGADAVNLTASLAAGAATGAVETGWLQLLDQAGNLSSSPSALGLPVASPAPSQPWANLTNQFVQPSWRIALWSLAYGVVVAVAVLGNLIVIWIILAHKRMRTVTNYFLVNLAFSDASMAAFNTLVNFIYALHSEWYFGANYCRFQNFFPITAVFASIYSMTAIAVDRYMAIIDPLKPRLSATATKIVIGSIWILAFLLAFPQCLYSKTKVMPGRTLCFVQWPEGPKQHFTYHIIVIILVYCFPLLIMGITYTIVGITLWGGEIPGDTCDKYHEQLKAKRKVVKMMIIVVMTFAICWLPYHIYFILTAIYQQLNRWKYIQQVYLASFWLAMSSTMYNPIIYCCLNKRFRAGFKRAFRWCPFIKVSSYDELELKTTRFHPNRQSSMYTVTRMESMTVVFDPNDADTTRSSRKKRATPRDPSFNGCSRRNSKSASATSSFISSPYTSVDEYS

NK1, sequence (P25103 whole entry): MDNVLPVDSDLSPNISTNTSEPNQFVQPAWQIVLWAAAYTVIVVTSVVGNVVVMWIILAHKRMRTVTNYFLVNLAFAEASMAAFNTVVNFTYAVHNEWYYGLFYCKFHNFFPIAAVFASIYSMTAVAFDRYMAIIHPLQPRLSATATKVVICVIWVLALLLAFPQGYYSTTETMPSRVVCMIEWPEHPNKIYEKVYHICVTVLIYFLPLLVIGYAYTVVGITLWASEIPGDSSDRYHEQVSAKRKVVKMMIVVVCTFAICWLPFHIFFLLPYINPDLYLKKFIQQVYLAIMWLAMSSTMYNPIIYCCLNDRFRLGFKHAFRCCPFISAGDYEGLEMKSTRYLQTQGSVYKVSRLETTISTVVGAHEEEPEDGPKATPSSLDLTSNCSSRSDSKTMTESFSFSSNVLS

| Structure (SMILES) | IC50 (NK1) [µM] | IC50 (NK2) [µM] | IC50 (NK3) [µM] | melting point [°C] |
| --- | --- | --- | --- | --- |
| O=C(C1CC1)N1CCC2(CC1)CCN(C1CCN(C(=O)c3cc(C(F)(F)F)cc(C(F)(F)F)c3)C(Cc3ccccc3)C1)C2 (stereo not drawn) [Compound 6] | 0.0537 |  | > 10 | 160 |
| O=C(C1CC1)N1CC2(CCN([C@H]3CCN(C(=O)c4cc(C(F)(F)F)cc(C(F)(F)F)c4)[C@H](Cc4ccccc4)C3)CC2)c2ccccc21 [Compound 37] | 0.302 | > 10 | 6.76 |  |
| CS(=O)(=O)N1CC2(CCN([C@H]3CCN(C(=O)c4cc(C(F)(F)F)cc(C(F)(F)F)c4)[C@H](Cc4ccccc4)C3)CC2)c2ccccc21 [Compound 39] | 0.135 | > 10 | > 10 |  |
| O=C1CC2(CCN([C@H]3CCN(C(=O)c4cc(C(F)(F)F)cc(C(F)(F)F)c4)[C@H](Cc4ccccc4)C3)CC2)CN1Cc1ccoc1 [Compound 26] | 0.0537 | 3.98 | > 10 |  |
| O=C(c1ccccc1Cl)N1CCC2(CCN([C@H]3CCN(C(=O)c4cc(C(F)(F)F)cc(C(F)(F)F)c4)[C@H](Cc4ccccc4)C3)CC2)C1 [Compound 13] | 0.0759 | 5.13 | 4.27 |  |
| O=C1CC2(CCN([C@@H]3CCN(C(=O)c4cc(C(F)(F)F)cc(C(F)(F)F)c4)[C@H](Cc4ccccc4)C3)CC2)CN1CC1CC1 [Compound 24] | 0.126 | 2.04 | 5.25 |  |
| O=C1CC2(CCN([C@H]3CCN(C(=O)c4cc(C(F)(F)F)cc(C(F)(F)F)c4)[C@H](Cc4ccccc4)C3)CC2)CN1CC1CC1 [Compound 23] | 0.0692 | 4.37 | > 10 |  |
| O=C1CC2(CCN([C@@H]3CCN(C(=O)c4cc(C(F)(F)F)cc(C(F)(F)F)c4)[C@H](Cc4ccccc4)C3)CC2)CN1Cc1ccoc1 [Compound 27] | 0.117 | 1.91 | 8.13 |  |
| O=C(c1cc(C(F)(F)F)cc(C(F)(F)F)c1)N1CCC(N2CCC3(CC2)CCN(S(=O)(=O)c2cccs2)C3)CC1Cc1ccccc1 (stereo not drawn) [Compound 9] | 0.234 | 9.55 | > 10 |  |
| O=C1CC2(CCN([C@H]3CCN(C(=O)c4cc(C(F)(F)F)cc(C(F)(F)F)c4)[C@H](Cc4ccccc4)C3)CC2)CN1 [Compound 21] | 0.347 | > 10 | > 10 | 152 |
| O=C(C1CCOC1)N1CCC2(CCN([C@@H]3CCN(C(=O)c4cc(C(F)(F)F)cc(C(F)(F)F)c4)[C@H](Cc4ccccc4)C3)CC2)C1 (stereo partly drawn) [Compound 11] | 0.282 | > 10 | 6.92 |  |
| O=C(c1ccoc1)N1CCC2(CCN(C3CCN(C(=O)c4cc(C(F)(F)F)cc(C(F)(F)F)c4)C(Cc4ccccc4)C3)CC2)C1 (stereo not drawn) [Compound 7] | 0.178 | 7.59 | 3.31 |  |
| O=C1CC2(CCN(C3CCN(C(=O)c4cc(C(F)(F)F)cc(C(F)(F)F)c4)C(Cc4ccccc4)C3)CC2)CN1CC1CCCO1 (stereo not drawn) [Compound 25] | 0.0316 | 5.5 | 6.92 |  |
| O=C(c1ccoc1)N1CCC2(CCN([C@H]3CCN(C(=O)c4cc(C(F)(F)F)cc(C(F)(F)F)c4)[C@H](Cc4ccccc4)C3)CC2)C1 [Compound 8] | 0.117 | > 10 | 0.977 |  |
| O=C(c1cc(C(F)(F)F)cc(C(F)(F)F)c1)N1CC[C@H](N2CCCC3(CCCN3C(=O)c3ccoc3)C2)C[C@H]1Cc1ccccc1 (stereo partly drawn) [Compound 48] | 0.234 | 3.63 | > 10 |  |
| O=C(c1cc(C(F)(F)F)cc(C(F)(F)F)c1)N1CC[C@H](N2CCCC3(CCCN3C(=O)C3CC3)C2)C[C@H]1Cc1ccccc1 (stereo partly drawn) [Compound 46] | 0.204 | 2.04 |  |  |

Second part, the compound after the results:

| IC50 (NK1) [µM] | IC50 (NK2) [µM] | IC50 (NK3) [µM] | melting point [°C] | Structure (SMILES) |
| --- | --- | --- | --- | --- |
| 0.0692 | 4.47 | > 10 |  | O=C1CC2(CCN([C@H]3CCN(C(=O)c4cc(C(F)(F)F)cc(C(F)(F)F)c4)[C@H](Cc4ccccc4)C3)CC2)CN1Cc1ccccc1Cl [Compound 34] |
| 0.182 | 9.12 | 9.55 |  | O=C1CC2(CCN([C@@H]3CCN(C(=O)c4cc(C(F)(F)F)cc(C(F)(F)F)c4)[C@H](Cc4ccccc4)C3)CC2)CN1Cc1ccccc1Cl [Compound 35] |
| 0.102 | 5.25 | > 10 |  | O=C1CC2(CCN([C@H]3CCN(C(=O)c4cc(C(F)(F)F)cc(C(F)(F)F)c4)[C@H](Cc4ccccc4)C3)CC2)CN1Cc1ccsc1 [Compound 29] |
| 0.191 | 9.55 | 9.12 |  | O=C1CC2(CCN([C@@H]3CCN(C(=O)c4cc(C(F)(F)F)cc(C(F)(F)F)c4)[C@H](Cc4ccccc4)C3)CC2)CN1Cc1ccccc1F [Compound 33] |
| 0.269 | 10.5 | 8.32 |  | Cc1ccccc1CN1CC2(CCN([C@@H]3CCN(C(=O)c4cc(C(F)(F)F)cc(C(F)(F)F)c4)[C@H](Cc4ccccc4)C3)CC2)CC1=O [Compound 32] |
| 0.0724 | 2.24 | 11 |  | O=C1CC2(CCN([C@@H]3CCN(C(=O)c4cc(C(F)(F)F)cc(C(F)(F)F)c4)[C@H](Cc4ccccc4)C3)CC2)CN1Cc1ccccc1 [Compound 31] |
| 0.145 | 7.59 | 10.2 |  | Cc1ccccc1CN1CC2(CCN([C@H]3CCN(C(=O)c4cc(C(F)(F)F)cc(C(F)(F)F)c4)[C@H](Cc4ccccc4)C3)CC2)CC1=O [Compound 28] |
| 0.302 | 0.813 | > 10 |  | O=C1CC2(CCN([C@@H]3CCN(C(=O)c4cc(C(F)(F)F)cc(C(F)(F)F)c4)[C@H](Cc4ccccc4)C3)CC2)CN1Cc1ccsc1 [Compound 30] |
